Assay results reported in US9682141B2, “Combination of kinase inhibitors and uses thereof” (INTELLIKINE LLC, priority 2011, dated 2017).
Read-outs that look alike come from different tables or passages of the source.

How the values were obtained:
Format in all cases: biochemical
PI3K γ = PI3K γ (Homo sapiens (Human), UniProt P48736); experiment: PI 3-Kinase (human) HTRF assay, p110γ
PI3K α = PI3K α (Homo sapiens (Human), UniProt P42336); experiment: PI 3-Kinase (human) HTRF assay, p110α/p85α
PI3K δ = PI3K δ (Homo sapiens (Human), UniProt O00329); experiment: PI 3-Kinase (human) HTRF assay, p110δ/p85α
PI3K δ, sequence (O00329 whole entry): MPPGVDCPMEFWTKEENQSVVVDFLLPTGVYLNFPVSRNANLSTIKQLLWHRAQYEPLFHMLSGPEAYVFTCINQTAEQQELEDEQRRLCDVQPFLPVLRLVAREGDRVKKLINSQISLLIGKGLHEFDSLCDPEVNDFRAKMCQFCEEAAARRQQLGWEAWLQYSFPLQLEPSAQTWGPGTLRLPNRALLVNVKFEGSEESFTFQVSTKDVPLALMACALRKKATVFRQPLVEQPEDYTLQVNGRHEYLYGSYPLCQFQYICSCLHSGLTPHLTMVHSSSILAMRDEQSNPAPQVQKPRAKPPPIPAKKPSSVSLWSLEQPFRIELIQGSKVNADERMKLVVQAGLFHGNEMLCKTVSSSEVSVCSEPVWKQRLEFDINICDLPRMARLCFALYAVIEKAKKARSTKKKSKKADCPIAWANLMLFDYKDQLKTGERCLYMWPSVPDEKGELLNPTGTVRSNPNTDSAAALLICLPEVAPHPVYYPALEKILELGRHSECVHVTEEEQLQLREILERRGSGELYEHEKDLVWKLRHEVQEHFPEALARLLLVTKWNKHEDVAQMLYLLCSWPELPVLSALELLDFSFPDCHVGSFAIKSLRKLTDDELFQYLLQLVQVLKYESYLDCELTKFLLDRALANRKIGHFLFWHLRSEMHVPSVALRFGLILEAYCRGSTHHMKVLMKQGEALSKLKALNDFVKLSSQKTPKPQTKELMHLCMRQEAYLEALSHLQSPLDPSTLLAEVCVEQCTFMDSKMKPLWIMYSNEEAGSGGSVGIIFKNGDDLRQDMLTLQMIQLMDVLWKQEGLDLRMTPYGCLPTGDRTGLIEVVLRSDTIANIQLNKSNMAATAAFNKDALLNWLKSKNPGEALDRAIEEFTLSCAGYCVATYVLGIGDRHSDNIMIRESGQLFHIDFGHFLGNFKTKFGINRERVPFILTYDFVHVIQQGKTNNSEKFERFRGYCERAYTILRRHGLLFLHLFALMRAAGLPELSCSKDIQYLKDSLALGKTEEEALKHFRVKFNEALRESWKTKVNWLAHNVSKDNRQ
PI3K δ, sequence (P27986 whole entry partner): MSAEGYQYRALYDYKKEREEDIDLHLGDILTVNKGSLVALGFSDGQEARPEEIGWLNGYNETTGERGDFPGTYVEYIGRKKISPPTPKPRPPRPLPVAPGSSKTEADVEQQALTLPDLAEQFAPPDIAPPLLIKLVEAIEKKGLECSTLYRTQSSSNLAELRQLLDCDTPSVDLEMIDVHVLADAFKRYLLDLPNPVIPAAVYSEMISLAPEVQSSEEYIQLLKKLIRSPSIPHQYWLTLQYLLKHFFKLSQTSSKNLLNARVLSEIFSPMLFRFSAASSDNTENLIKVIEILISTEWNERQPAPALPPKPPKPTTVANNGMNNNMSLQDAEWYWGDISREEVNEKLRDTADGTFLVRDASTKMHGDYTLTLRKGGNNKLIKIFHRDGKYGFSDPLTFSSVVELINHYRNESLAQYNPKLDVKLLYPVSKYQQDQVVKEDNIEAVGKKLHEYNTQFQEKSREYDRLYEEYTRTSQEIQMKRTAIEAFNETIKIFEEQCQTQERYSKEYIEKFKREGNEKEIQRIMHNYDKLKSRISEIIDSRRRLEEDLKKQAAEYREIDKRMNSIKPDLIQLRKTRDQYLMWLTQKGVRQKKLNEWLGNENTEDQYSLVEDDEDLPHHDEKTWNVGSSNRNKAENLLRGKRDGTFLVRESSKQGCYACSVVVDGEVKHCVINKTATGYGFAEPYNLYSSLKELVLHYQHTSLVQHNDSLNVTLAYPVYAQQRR
Protocol: An exemplary system is PI 3-Kinase (human) HTRF™ Assay from Upstate. […] Briefly, the assay is a time resolved FRET assay that indirectly measures PIP3 product formed by the activity of a PI3-K. The kinase reaction is performed in a microtitre plate (e.g., a 384 well microtitre plate). The total reaction volume is approximately 20 ul per well. In the first step, each well receives 2 ul of test compound in 20% dimethylsulphoxide resulting in a 2% DMSO final concentration. Next, approximately 14.5 ul of a kinase/PIP2 mixture (diluted in 1× reaction buffer) is added per well for a final concentration of 0.25-0.3 ug/ml kinase and 10 μM PIP2. The plate is sealed and incubated for 15 minutes at room temperature. To start the reaction, 3.5 ul of ATP (diluted in 1× reaction buffer) is added per well for a final concentration of 10 μM ATP. The plate is sealed and incubated for 1 hour at room temperature. The reaction is stopped by adding 5 ul of Stop Solution per well and then 5 ul of Detection Mix is added per well. The plate is sealed, incubated for 1 hour at room temperature, and then read on an appropriate plate reader. Data is analyzed and IC50s are generated using GraphPad Prism 5. For PI3K α, β, δ, and γ, the nM concentration of inhibitor to reach IC50 is provided.

PI3K β = PI3K β (Homo sapiens (Human), UniProt P42338); experiment: PI 3-Kinase (human) HTRF assay, p110β/p85α
PI3K β, sequence (P42338 whole entry): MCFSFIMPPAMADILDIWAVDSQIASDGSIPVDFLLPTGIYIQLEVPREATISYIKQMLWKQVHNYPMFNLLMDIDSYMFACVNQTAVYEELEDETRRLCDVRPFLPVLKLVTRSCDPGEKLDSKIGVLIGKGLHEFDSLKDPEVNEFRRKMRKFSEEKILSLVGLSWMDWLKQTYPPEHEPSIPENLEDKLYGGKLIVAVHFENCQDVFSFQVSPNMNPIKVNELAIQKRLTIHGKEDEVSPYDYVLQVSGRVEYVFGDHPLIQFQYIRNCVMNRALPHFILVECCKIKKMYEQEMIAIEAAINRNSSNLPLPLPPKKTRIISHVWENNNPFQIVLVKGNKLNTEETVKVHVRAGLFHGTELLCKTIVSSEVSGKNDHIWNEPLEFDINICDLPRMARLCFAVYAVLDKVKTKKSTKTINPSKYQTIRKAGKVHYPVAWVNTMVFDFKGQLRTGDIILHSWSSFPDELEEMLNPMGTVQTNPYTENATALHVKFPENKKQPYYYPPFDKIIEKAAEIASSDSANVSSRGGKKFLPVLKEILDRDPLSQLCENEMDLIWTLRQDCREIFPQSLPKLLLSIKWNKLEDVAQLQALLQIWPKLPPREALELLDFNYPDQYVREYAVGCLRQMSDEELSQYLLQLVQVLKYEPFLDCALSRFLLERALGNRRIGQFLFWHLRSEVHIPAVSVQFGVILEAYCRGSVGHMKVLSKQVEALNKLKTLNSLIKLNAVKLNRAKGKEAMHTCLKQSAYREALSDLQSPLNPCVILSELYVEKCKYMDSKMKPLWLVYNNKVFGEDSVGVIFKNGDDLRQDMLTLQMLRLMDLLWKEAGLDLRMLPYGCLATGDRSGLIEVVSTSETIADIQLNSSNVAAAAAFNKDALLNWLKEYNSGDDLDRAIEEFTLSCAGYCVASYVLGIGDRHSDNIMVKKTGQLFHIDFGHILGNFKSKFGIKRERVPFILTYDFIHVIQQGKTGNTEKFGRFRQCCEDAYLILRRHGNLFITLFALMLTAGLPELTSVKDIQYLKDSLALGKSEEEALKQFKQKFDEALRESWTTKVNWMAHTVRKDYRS
PI3K β, sequence (P27986 whole entry partner): as the sequence (P27986 whole entry partner) above

[1] = PI 3-Kinase (human) HTRF assay, p110δ/p85α; conditions: read-out: PI3K γ IC50

PI3K α, sequence (P42336 whole entry): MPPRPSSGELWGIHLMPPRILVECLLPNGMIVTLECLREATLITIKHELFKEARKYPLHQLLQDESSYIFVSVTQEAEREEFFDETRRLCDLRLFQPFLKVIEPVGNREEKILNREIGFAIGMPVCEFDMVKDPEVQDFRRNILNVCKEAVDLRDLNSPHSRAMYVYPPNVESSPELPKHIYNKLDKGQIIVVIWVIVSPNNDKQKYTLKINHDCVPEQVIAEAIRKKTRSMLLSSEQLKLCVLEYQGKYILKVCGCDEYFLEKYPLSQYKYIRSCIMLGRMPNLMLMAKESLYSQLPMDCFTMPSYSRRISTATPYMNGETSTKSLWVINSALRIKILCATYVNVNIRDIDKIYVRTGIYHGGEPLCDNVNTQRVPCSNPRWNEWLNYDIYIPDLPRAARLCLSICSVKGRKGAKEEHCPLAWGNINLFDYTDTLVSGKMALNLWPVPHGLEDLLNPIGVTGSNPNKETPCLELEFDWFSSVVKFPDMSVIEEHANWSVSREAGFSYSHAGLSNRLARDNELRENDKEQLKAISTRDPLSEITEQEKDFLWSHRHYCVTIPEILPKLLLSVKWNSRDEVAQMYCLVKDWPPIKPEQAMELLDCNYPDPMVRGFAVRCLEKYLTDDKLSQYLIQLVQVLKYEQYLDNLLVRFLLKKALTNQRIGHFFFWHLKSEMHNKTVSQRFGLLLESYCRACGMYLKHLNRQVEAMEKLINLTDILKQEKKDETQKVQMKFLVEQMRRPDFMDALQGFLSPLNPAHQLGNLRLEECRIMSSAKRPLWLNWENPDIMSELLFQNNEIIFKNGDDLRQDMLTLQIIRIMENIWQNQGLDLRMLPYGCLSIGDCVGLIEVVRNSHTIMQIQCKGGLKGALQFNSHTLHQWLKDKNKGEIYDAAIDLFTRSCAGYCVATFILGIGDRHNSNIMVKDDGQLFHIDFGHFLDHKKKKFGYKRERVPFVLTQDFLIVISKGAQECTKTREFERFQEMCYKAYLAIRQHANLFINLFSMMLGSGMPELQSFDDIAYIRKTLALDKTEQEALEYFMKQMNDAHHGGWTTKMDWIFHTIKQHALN
PI3K α, sequence (P27986 whole entry partner): as the sequence (P27986 whole entry partner) above

Row | SMILES | IC50 (PI3K γ; read-out: PI3K γ IC50) [nM] | IC50 (PI3K α) [nM] | IC50 (PI3K δ) [nM] | IC50 (PI3K β) [nM] | IC50 (PI3K γ; read-out: PI3K δ IC50) [nM] | IC50 [1] [nM]
1 | CC(C)(C#N)c1ccc(Nc2ncnc3ccc(-c4ccc5oc(N)nc5c4)cc23)cc1 | < 100 | < 100 | < 1000 | < 1000 |  | 
2 | CN1CCN(c2nc3cc(-c4ccc5oc(N)nc5c4)ccc3c(=O)n2C)CC1 | > 10000 | < 10000 | > 10000 | > 10000 |  | 
3 | Nc1nc2cc(-c3ccc4ncc(N5CCC(N)CC5)nc4c3)ccc2o1 | > 10000 | < 100 | < 10000 | < 1000 |  | 
4 | CC(C)N1CCC(Nc2ncnc3ccc(-c4ccc5oc(N)nc5c4)cc23)CC1 | < 10000 | < 100 | < 1000 | < 10000 |  | 
5 | Nc1nc2cc(-c3ccc4ncc(NC5CCOCC5)nc4c3)ccc2o1 | < 100 | < 100 | < 1000 | < 10000 |  | 
6 | Cc1cn(-c2cnc3ccc(-c4ccc5oc(N)nc5c4)cc3n2)cn1 | < 1000 | < 100 | > 10000 | > 10000 |  | 
7 | C[C@H]1CN(C2CN(c3cnc4ccc(-c5ccc6oc(N)nc6c5)nc4n3)C2)CCN1C | > 10000 | < 100 | < 10000 | > 10000 |  | 
8 | Nc1nc2cc(-c3ccc4nccc(CCN5CCOCC5)c4c3)ccc2o1 [Compound 27] | < 100 | < 1000 | < 10000 |  |  | 
9 | CN1CCN(C(=O)c2cnc3ccc(-c4ccc5oc(N)nc5c4)nn23)CC1 | < 10000 | < 10000 | > 10000 | > 10000 |  | 
10 | CN1CCC(N(C)C(=O)c2cnc3ccc(-c4ccc5oc(N)nc5c4)cn23)CC1 | > 10000 | < 1000 | < 10000 | < 10000 |  | 
11 | CN1CCN(c2ccnc3ccc(-c4ccc5oc(N)nc5c4)cc23)CC1 [Compound 21] | < 10000 | < 1000 | < 10000 | < 10000 |  | 
12 | Nc1nc2cc(-c3ccc4ncc(N5CCOCC5)nc4n3)ccc2o1 | < 100 | < 100 | > 10000 | < 1000 |  | 
13 | Nc1noc2ccc(-c3ccc4nccc(-c5ccncc5)c4c3)cc12 [Compound 18] | < 10000 | < 10000 | > 10000 | > 10000 |  | 
14 | Nc1nc2cc(-c3ccc4ncc(-c5ccnc(N6CCOCC6)c5)nc4c3)ccc2o1 | > 10000 | < 1000 | > 10000 | > 10000 |  | 
15 | Nc1nc2cc(-c3ccc4ncc(-c5ccncc5)nc4c3)ccc2o1 | < 100 | < 100 | < 1000 | < 10000 |  | 
16 | Nc1nc2cc(-c3ccc4ncc(-c5cnn(CCO)c5)nc4c3)ccc2o1 | < 100 | < 100 | > 10000 | < 10000 |  | 
17 | Nc1nc2cc(-c3ccc4ncc(N5CCCCC5)nc4c3)ccc2o1 | < 10000 | < 100 | > 10000 | > 10000 |  | 
18 | CN1CCN(c2ncnc3ccc(-c4ccc5oc(N)nc5c4)cc23)CC1 [Compound 23] | < 100 | < 100 | < 10000 | < 1000 |  | 
19 | Nc1nc2ccc(-c3ccc4ncc(C(=O)N5CCOCC5)n4c3)cc2o1 | < 1000 | < 1000 | > 10000 | < 1000 |  | 
20 | Nc1nc2cc(-c3ccc4ncnc(N5CCC(O)CC5)c4c3)ccc2o1 [Compound 29] | < 100 | < 100 | < 100 |  |  | 
21 | Nc1nc2cc(-c3ccc4ncc(N[C@H]5CC[C@H](O)CC5)nc4c3)ccc2o1 | < 100 | < 100 | < 100 | < 10000 |  | 
22 | Nc1nc2cc(-c3ccc4ncc(-c5cccnc5)n4c3)ccc2o1 [Compound 37] | < 100 | < 100 | < 100 |  |  | 
23 | Nc1nc2cc(-c3ccc4nccc(NCCN5CCOCC5)c4c3)ccc2o1 [Compound 33] | < 1000 | < 100 | < 1000 |  |  | 

Row | SMILES | IC50 (PI3K γ; read-out: PI3K γ IC50) [nM] | IC50 (PI3K α) [nM] | IC50 (PI3K δ) [nM] | IC50 (PI3K β) [nM] | IC50 (PI3K γ; read-out: PI3K δ IC50) [nM] | IC50 [1] [nM]
24 | CN1CCC(Oc2ncnc3ccc(-c4ccc5oc(N)nc5c4)cc23)CC1 [Compound 34] | < 100 | < 100 | < 1000 |  |  | 
25 | CN1CCN(c2cc(-c3ccnc4ccc(-c5ccc6oc(N)nc6c5)cc34)ccn2)CC1 [Compound 30] | < 100 | < 100 | < 100 |  |  | 
26 | Nc1nc2cc(-c3ccc4ncc(-c5cn[nH]c5)n4c3)ccc2o1 [Compound 38] | < 100 | < 100 | < 100 |  |  | 
27 | Nc1nc2cc(-c3ccc4nccc(N5CCOCC5)c4c3)ccc2o1 [Compound 28] | < 100 | < 100 | < 1000 |  |  | 
28 | Nc1nc2cc(-c3ccc4ncc(C#CC5CC5)n4c3)ccc2o1 [Compound 39] | < 100 | < 100 | < 100 |  |  | 
29 | Nc1nc2cc(-c3ccc4nccc(-c5cccnc5)c4c3)ccc2o1 [Compound 31] | < 100 | < 100 | < 100 |  |  | 
30 | Nc1nc2cc(-c3ccc4nccc(-c5cn[nH]c5)c4c3)ccc2o1 [Compound 20] |  | < 100 | < 100 | < 100 |  | 
31 | Nc1nc2cc(-c3ccc4nccc(NC5CCOCC5)c4c3)ccc2o1 [Compound 32] | < 10000 | < 10000 | > 10000 |  |  | 
32 | Nc1nc2cccc(-c3ccc4nccc(-c5ccncc5)c4c3)c2s1 [Compound 17] | < 100 |  | < 1000 | < 1000 |  | 
33 | CN1CCN(c2cc(-c3cnc4ccc(-c5ccc6oc(N)nc6c5)cn34)ccn2)CC1 [Compound 43] | < 100 | < 100 | < 100 |  |  | 
34 | CC(=O)N1CCC(n2cnc3ccc(-c4ccc5oc(N)nc5c4)cc3c2=O)CC1 | > 10000 | < 10000 | > 10000 |  |  | 
35 | CCN1CCN(c2cnc3ccc(-c4ccc5oc(N)nc5c4)cc3n2)C(=O)C1 |  | < 10000 |  | > 10000 | > 10000 | > 10000
36 | Cc1cc2oc(N)nc2cc1-c1ccc2ncc(N3CCN[C@@H](C)C3)nc2c1 |  | < 10000 |  | < 1000 | > 10000 | > 10000
37 | Nc1nc2cc(-c3ccc4ncc(C(=O)N5C6CCC5COC6)n4c3)ccc2o1 |  | < 100 |  | > 10000 | < 1000 | < 10000
38 | Nc1nc2cc(-c3ccc4ncc(N5CCC(O)C5)nc4c3)ccc2o1 (stereo not drawn) |  | < 100 |  | < 1000 | < 100 | < 10000
39 | Nc1nc2ccc(-c3cc(F)c4ncc(C(=O)N5CCOCC5)n4c3)cc2o1 |  | < 10000 |  | > 10000 | > 10000 | > 10000
40 | Nc1nc2cc(-c3ccc4ncc(C(=O)N5CC(O)C5)n4c3)ccc2o1 |  | < 100 |  | < 10000 | < 100 | < 10000
41 | CN1CCN(C2CCN(c3cnc4ccc(-c5ccc6oc(N)nc6c5)cc4n3)CC2)CC1 |  | < 100 |  | < 1000 | < 10000 | < 100
42 | C[C@H]1CN(c2cnc3cccc(-c4ccc5oc(N)nc5c4)c3n2)CCN1 |  | > 10000 |  | > 10000 | > 10000 | > 10000
43 | Nc1nc2cc(-c3ccc4ncc(N5CCNCC5=O)nc4c3)ccc2o1 |  | < 1000 |  | > 10000 | < 10000 | > 10000
44 | CCN(CC)CCCNC(=O)c1cnc2ccc(-c3ccc4oc(N)nc4c3)cn12 |  | < 1000 |  | < 10000 | < 10000 | < 100
45 | C[C@H]1CN(c2nc3cc(-c4ccc5oc(N)nc5c4)ccc3nc2N)CCN1 |  | < 10000 |  | > 10000 | > 10000 | > 10000
